Measurements as given in patent US20230002334A1, “TRPM8 MODULATORS” (Givaudan SA, priority 2019, published 2023).

Target: T1, hTRPM8 (Homo sapiens, UniProt Q7Z2W7)
T1 construct: expressed in transfected cells
Test: Assay on TRPM8 modulators: calcium imaging (Fluo-4, Flexstation) in HEK293 cell line stably expressing hTRPM8
Assay type: cell-based
Conditions: HEK293 cells stably expressing hTRPM8, calcium influx, sigmoidal dose-response fit; read-out: EC50
Description: A HEK293 cell line stably expressing hTRPM8 was generated according to Klein et al., (Chem. Senses 36: 649-658, 2011) and receptor activation was monitored by calcium imaging in a Flexstation. For Ca-imaging assays of TRPM8 channel activation, cells were seeded on day 0 at a density of 12000 cells per well in Dulbecco's modified Eagle medium (DMEM) containing 9% foetal bovine serum in black, clear bottom 96-well plates that had been coated with 0.001% polyethyleneimine (molecular weight=60 000, Acros Organics). On day 2, agonists were evaluated via calcium imaging using Fluo-4. Briefly, growth medium was discarded, and the cells were incubated in the dark for 1 h at 37° C. in 50 μL loading buffer consisting of 2.7 μM Fluo-4 AM (Invitrogen) and […] probenecid (Sigma-Aldrich) in DMEM (without serum). After incubation, the plates were washed five times with 100 μL of assay buffer (in mM: 130 NaCl, 5 KCl, 10 HEPES, 2 CaCl2, and 10 glucose, pH7.4.) and further incubated in the dark at room temperature for 30 min. The cells were then washed five times with 100 μL assay buffer and then calcium influx to serial dilutions of inventive compounds were measured in a Flexstation 3 (Molecular Devices). Receptor activation was initiated following addition of 20 μl of a 10-fold concentrated ligand stock solution, which is also prepared in assay buffer. Fluorescence was continuously monitored for 15 seconds prior to ligand addition and for 105 seconds after ligand addition, for a total of 120 seconds. Maximal receptor activation in relation to solvent control and relative to 31.6 μM menthol is determined. Data from serial dilutions were processed with a KNIME workflow to fit a sigmoidal dose-response curve and to extrapolate EC50 values.

T1 sequence (Q7Z2W7 whole entry): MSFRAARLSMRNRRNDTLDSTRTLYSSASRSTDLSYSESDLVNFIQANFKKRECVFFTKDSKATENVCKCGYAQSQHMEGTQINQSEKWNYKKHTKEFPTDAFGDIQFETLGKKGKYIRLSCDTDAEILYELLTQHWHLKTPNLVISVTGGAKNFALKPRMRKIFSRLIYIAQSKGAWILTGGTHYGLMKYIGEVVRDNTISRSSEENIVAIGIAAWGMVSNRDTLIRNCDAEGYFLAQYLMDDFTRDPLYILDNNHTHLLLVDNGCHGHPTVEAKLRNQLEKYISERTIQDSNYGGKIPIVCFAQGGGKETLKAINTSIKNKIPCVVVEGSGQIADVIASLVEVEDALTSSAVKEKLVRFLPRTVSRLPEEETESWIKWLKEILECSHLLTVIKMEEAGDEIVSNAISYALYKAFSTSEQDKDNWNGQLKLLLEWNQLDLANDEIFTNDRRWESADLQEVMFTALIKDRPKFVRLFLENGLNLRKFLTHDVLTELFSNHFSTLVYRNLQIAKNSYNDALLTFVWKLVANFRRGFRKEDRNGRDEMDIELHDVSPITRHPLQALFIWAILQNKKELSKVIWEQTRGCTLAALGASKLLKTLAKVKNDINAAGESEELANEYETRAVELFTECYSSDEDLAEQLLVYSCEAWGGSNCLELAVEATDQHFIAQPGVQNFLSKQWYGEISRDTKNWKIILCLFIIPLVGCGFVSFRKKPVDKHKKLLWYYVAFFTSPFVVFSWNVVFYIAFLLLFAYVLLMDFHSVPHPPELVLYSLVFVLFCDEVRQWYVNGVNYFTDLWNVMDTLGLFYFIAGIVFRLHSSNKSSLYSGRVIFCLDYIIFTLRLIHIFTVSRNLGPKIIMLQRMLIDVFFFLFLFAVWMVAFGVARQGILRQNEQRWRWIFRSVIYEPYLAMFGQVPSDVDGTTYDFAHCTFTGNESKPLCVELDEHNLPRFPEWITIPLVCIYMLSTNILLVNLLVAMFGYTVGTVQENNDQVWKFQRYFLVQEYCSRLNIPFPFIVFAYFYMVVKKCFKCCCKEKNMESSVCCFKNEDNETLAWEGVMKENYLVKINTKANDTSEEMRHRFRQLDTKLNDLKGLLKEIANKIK

| SMILES | EC50 [nM] |
| --- | --- |
| Cc1ccc(C#N)cc1[C@H]1C[C@@H]2[C@@H]([C@@H](C)C1)N(C)OC2(C)C (racemic) [Compound 136, rac-4-methyl-3-((3aR,5R,7S,7aR)-1,3,3,7-tetramethyloctahydrobenzo[c]isoxazol-5-yl)benzonitrile] | 50 to 300 |
| Cc1ccc(C#N)cc1[C@@]1(C)C[C@@H]2[C@@H]([C@@H](C)C1)N(C)OC2(C)C (stereo in doubt) [Compound 138, rel-4-methyl-3-((3aR,5R,7S,7aR)-1,3,3,5,7-pentamethyloctahydrobenzo[c]isoxazol-5-yl)benzonitrile] | < 50 |
| CCC[C@@]1(C)C[C@@H]2[C@@H]([C@@H](C)C1)N(C)OC2(C)C (racemic) [Compound 49, rac-(3aR,5R,7S,7aR)-1,3,3,5,7-pentamethyl-5-propyloctahydrobenzo[c]isoxazole] | 300 to 1000 |
| CC(C)=CCC1(C)CC(C)C2C(C1)C(C)(C)ON2C(C)C (stereo not drawn) [Compound 10, 1-isopropyl-3,3,5,7-tetramethyl-5-(3-methylbut-2-en-1-yl)octahydrobenzo[c]isoxazole] | 300 to 1000 |
| C[C@H]1C[C@@](C)(c2ccc3c(c2)OCO3)C[C@@H]2[C@@H]1N(C)OC2(C)C (racemic) [Compound 109, rac-(3aR,5R,7S,7aR)-5-(benzo[d][1,3]dioxol-5-yl)-1,3,3,5,7-pentamethyloctahydrobenzo[c]isoxazole] | 300 to 1000 |
| COc1ccc([C@]2(C)C[C@@H](C)[C@@H]3[C@@H](C2)C(C)(C)ON3C)cc1 (racemic) [Compound 36, rac-(3aR,5R,7R,7aR)-5-(4-methoxyphenyl)-1,3,3,5,7-pentamethyloctahydrobenzo[c]isoxazole] | 1000 to 35000 |
| C[C@H]1C[C@@](C)(c2cccc3ccccc23)C[C@@H]2[C@@H]1N(C)OC2(C)C (racemic) [Compound 44, rac-(3aR,5R,7S,7aR)-1,3,3,5,7-pentamethyl-5-(naphthalen-1-yl)octahydrobenzo[c]isoxazole] | 300 to 1000 |
| Cc1ccc(C#N)cc1[C@@]1(C)C[C@@H](C)[C@H]2[C@H](C1)C(C)(C)ON2C (stereo in doubt) [Compound 139, rel-4-methyl-3-((3aS,5S,7R,7aS)-1,3,3,5,7-pentamethyloctahydrobenzo[c]isoxazol-5-yl)benzonitrile] | 50 to 300 |
| C[C@H]1C[C@@](C)(c2ccc(F)cc2)C[C@H]2[C@H]1N(C)OC2(C)C (racemic) [Compound 119, rac-(3aS,5R,7S,7aS)-5-(4-fluorophenyl)-1,3,3,5,7-pentamethyloctahydrobenzo[c]isoxazole] | 300 to 1000 |
| CCCC[C@@H]1CC[C@@H]2[C@@H](C1)C(C)(C)ON2C (racemic) [Compound 27, rac-(3aR,5R,7aR)-5-butyl-1,3,3-trimethyloctahydrobenzo[c]isoxazole] | 300 to 1000 |
| C[C@H]1C[C@@](C)(c2cc(F)cc(C(F)(F)F)c2)C[C@@H]2[C@@H]1N(C)OC2(C)C (racemic) [Compound 91, rac-(3aR,5R,7S,7aR)-5-(3-fluoro-5-(trifluoromethyl)phenyl)-1,3,3,5,7-pentamethyloctahydrobenzo[c]isoxazole] | 300 to 1000 |
| Cc1ccc(C)c([C@@]2(C)C[C@@H]3[C@@H]([C@@H](C)C2)N(C)OC3(C)C)c1 (racemic) [Compound 74, rac-(3aR,5R,7S,7aR)-5-(2,5-dimethylphenyl)-1,3,3,5,7-pentamethyloctahydrobenzo[c]isoxazole] | < 50 |
| CC(C)CCC1CC(C)C2C(C1)C(C)(C)OCN2C (stereo not drawn) [Compound 22, 6-isopentyl-1,4,4,8-tetramethyloctahydro-2H-benzo[d][1,3]oxazine] | 1000 to 35000 |
| Cc1ccccc1[C@@]1(C)C[C@@H]2[C@@H]([C@@H](C)C1)N(C(C)C)OC2(C)C (racemic) [Compound 59, rac-(3aR,5R,7S,7aR)-1-isopropyl-3,3,5,7-tetramethyl-5-(o-tolyl)octahydrobenzo[c]isoxazole] | 50 to 300 |
| Cc1cc(F)ccc1[C@H]1C[C@@H]2[C@@H]([C@@H](C)C1)N(C)OC2(C)C (racemic) [Compound 101, rac-(3aR,5R,7S,7aR)-5-(4-fluoro-2-methylphenyl)-1,3,3,7-tetramethyloctahydrobenzo[c]isoxazole] | 50 to 300 |
| Cc1cc(F)ccc1[C@]1(C)C[C@@H](C)[C@@H]2[C@@H](C1)C(C)(C)ON2C (racemic) [Compound 35, rac-(3aR,5R,7R,7aR)-5-(4-fluoro-2-methylphenyl)-1,3,3,5,7-pentamethyloctahydrobenzo[c]isoxazole] | 1000 to 35000 |
| Cc1ccc([C@H]2C[C@@H]3[C@@H]([C@@H](C)C2)N(C)OC3(C)C)c(C)c1 (racemic) [Compound 72, rac-(3aR,5R,7S,7aR)-5-(2,4-dimethylphenyl)-1,3,3,7-tetramethyloctahydrobenzo[c]isoxazole] | 50 to 300 |

| SMILES | EC50 [nM] |
| --- | --- |
| C[C@H]1C[C@@](C)(c2ccc(F)c(F)c2)C[C@@H]2[C@@H]1N(C)OC2(C)C (racemic) [Compound 84, rac-(3aR,5R,7S,7aR)-5-(3,4-difluorophenyl)-1,3,3,5,7-pentamethyloctahydrobenzo[c]isoxazole] | 50 to 300 |
| CCC1(CC)C[C@@H]2[C@@H]([C@@H](C)C1)N(C)OC2(C)C (racemic) [Compound 118, rac-(3aR,7S,7aR)-5,5-diethyl-1,3,3,7-tetramethyloctahydrobenzo[c]isoxazole] | 1000 to 35000 |
| CCc1ccccc1[C@H]1C[C@@H]2[C@@H]([C@@H](C)C1)N(C(C)C)OC2(C)C (racemic) [Compound 80, rac-(3aR,5R,7S,7aR)-5-(2-ethylphenyl)-1-isopropyl-3,3,7-trimethyloctahydrobenzo[c]isoxazole] | 300 to 1000 |
| CCC1CC(CC)C2C(C1)C(C)(C)ON2C (stereo not drawn) [Compound 19, 5,7-diethyl-1,3,3-trimethyloctahydrobenzo[c]isoxazole] | 1000 to 35000 |
| CCN1OC(C)(C)[C@@H]2C[C@](C)(c3ccccc3C)C[C@H](C)[C@H]21 (racemic) [Compound 54, rac-(3aR,5R,7S,7aR)-1-ethyl-3,3,5,7-tetramethyl-5-(o-tolyl)octahydrobenzo[c]isoxazole] | < 50 |
| Cc1ccc([C@@]2(C)C[C@@H]3[C@@H]([C@@H](C)C2)N(C)OC3(C)C)cc1C#N (racemic) [Compound 123, rac-2-methyl-5-((3aR,5R,7S,7aR)-1,3,3,5,7-pentamethyloctahydrobenzo[c]isoxazol-5-yl)benzonitrile] | 50 to 300 |
| Cc1cccc([C@@]2(C)C[C@@H]3[C@@H]([C@@H](C)C2)N(C)OC3(C)C)c1 (racemic) [Compound 43, rac-(3aR,5R,7S,7aR)-1,3,3,5,7-pentamethyl-5-(m-tolyl)octahydrobenzo[c]isoxazole] | 50 to 300 |
| CCCCC[C@@H]1CC[C@@H]2[C@@H](C1)C(C)(C)ON2C (racemic) [Compound 23, rac-(3aR,5R,7aR)-1,3,3-trimethyl-5-pentyloctahydrobenzo[c]isoxazole] | 300 to 1000 |
| CCCC[C@@H]1CC[C@@H]2[C@@H](C1)C(C)(C)ON2C(C)C (racemic) [Compound 29, rac-(3aR,5R,7aR)-5-butyl-1-isopropyl-3,3-dimethyloctahydrobenzo[c]isoxazole] | 1000 to 35000 |
| CCN1OC(C)(C)[C@@H]2C[C@H](C)C[C@H](C)[C@H]21 (racemic) [Compound 56, rac-(3aR,5R,7S,7aR)-1-ethyl-3,3,5,7-tetramethyloctahydrobenzo[c]isoxazole] | 1000 to 35000 |
| CC1CC(C)C2C(C1)C(C)(C)ON2C(C)C (stereo not drawn) [Compound 11, 1-isopropyl-3,3,5,7-tetramethyloctahydrobenzo[c]isoxazol-1-ium chloride] | 300 to 1000 |
| Cc1cc(C)c([C@@]2(C)C[C@@H]3[C@@H]([C@@H](C)C2)N(C)OC3(C)C)cc1C (racemic) [Compound 38, rac-(3aR,5R,7S,7aR)-1,3,3,5,7-pentamethyl-5-(2,4,5-trimethylphenyl)octahydrobenzo[c]isoxazole] | 50 to 300 |
| Cc1cc(F)ccc1[C@@]1(C)C[C@@H]2[C@@H]([C@@H](C)C1)N(C)OC2(C)C (racemic) [Compound 100, rac-(3aR,5R,7S,7aR)-5-(4-fluoro-2-methylphenyl)-1,3,3,5,7-pentamethyloctahydrobenzo[c]isoxazole] | < 50 |
| CCc1ccccc1[C@@]1(C)C[C@@H]2[C@@H]([C@@H](C)C1)N(C)OC2(C)C (racemic) [Compound 78, rac-(3aR,5R,7S,7aR)-5-(2-ethylphenyl)-1,3,3,5,7-pentamethyloctahydrobenzo[c]isoxazole] | 50 to 300 |
| C[C@H]1C[C@@](C)(c2ccc(F)cc2F)C[C@@H]2[C@@H]1N(C)OC2(C)C (racemic) [Compound 70, rac-(3aR,5R,7S,7aR)-5-(2,4-difluorophenyl)-1,3,3,5,7-pentamethyloctahydrobenzo[c]isoxazole] | 50 to 300 |
| COc1cc(OC)cc([C@@]2(C)C[C@@H]3[C@@H]([C@@H](C)C2)N(C)OC3(C)C)c1 (racemic) [Compound 86, rac-(3aR,5R,7S,7aR)-5-(3,5-dimethoxyphenyl)-1,3,3,5,7-pentamethyloctahydrobenzo[c]isoxazole] | 1000 to 35000 |
